# In patent publication US20240116998A1, “GLUCAGON-LIKE PEPTIDE-1 RECEPTOR ANTAGONISTS” (INDIANA UNIVERSITY RESEARCH AND TECHNOLOGY CORPORATION, priority 2021, published 2024):
# Starred links: 1 amine or outer side, 2 acyl side, 3 side chain; linkers in the order of their positions; H or OH if unused. Non-standard residues stand in square brackets, D forms with d. Residues, ends and D or L forms follow the SMILES beside them. Groups on a side chain read outwards from the residue. *: point of attachment. γGlu = O=C(O)[C@H](CCC(=O)[*:2])N[*:1]; Palmitoyl = CCCCCCCCCCCCCCCC(=O)*; AEEA = NCCOCCOCC(=O)O; Aib = CC(C)(N)C(=O)O
# Tests used:
# C57B1/6 mice = experiment: Glucose tolerance test after subcutaneous GLP-1 antagonist (acute in vivo study); settings: s.c. antagonist, i.p. glucose 1.5 g/kg four hours later
# Protocol: FIGS. 2A & 2B present data from a glucose tolerance test wherein mice are subcutaneously administered the GLP-1 antagonist followed four hours later by intraperitoneal administration of glucose (1.5 g glucose per kg body weight).
# C57B1/6 mice were obtained from Jackson Laboratories. Mice were single- or group-housed on a 12:12 h light-dark cycle at 22° C. with free access to food and water. All studies were approved by and performed according to the guidelines of the Institutional Animal Care and Use Committee of the University of Cincinnati.
# For the determination of glucose tolerance, mice were subjected to 6 h of fasting and injected intraperitoneally with glucose. Injections consisted of 1.5 g glucose per kg body weight (25% w/v D-glucose (Sigma) in 0.9% w/v saline). Tail blood glucose levels (mg dL-1) were measured using a hand-held glucometer (FreeStyle Freedom Lite) before 0 min and at 15, 30, 60, and 120 min after injection.
# Mice received a subcutaneous injection of peptide (in PBS) either 1, 4, 8, 24, 48, 72, or 120 at varying doses before being challenged with an IP injection of dipeptidyl peptidase-IV-protected Ex-4 (0.65 nmol kg−1). A GTT was performed fifteen minutes after the GLP-1 injection. Tail blood glucose values were obtained as described above.
# human GLP-1 receptor = biological target: T1, human GLP-1 receptor (Homo sapiens, UniProt P43220); experiment: GLP-1 receptor-mediated cAMP induction, luciferase reporter gene assay (antagonism mode); assay type: cell-based; settings: Table 2; HEK 293 cells, human GLP-1R, vs 0.05 nM GLP-1; read-out: Bioactivity IC50
# T1 construct: host or cells: HEK 293
# Protocol: GLP-1 Receptor-Mediated cAMP Induction
# The ability of peptides to stimulate or block cAMP induction at the GLP-1 receptor was examined by a luciferase-based reporter gene assay. Cotransfection of HEK 293 cells with the human GLP-1 receptor (Open Biosystems) and a cAMPinducible (cAMPresponsive element) luciferase gene constituted the cellular construct where receptor activation could be measured. Bioassays were performed by first serum depriving the cells for 16 h in 0.25% bovine growth serum (HyClone)-supplemented Dulbecco's modified Eagle's medium (Invitrogen) and then adding serial dilutions of the peptides over the appropriate concentration ranges in 96-well poly-D-lysine-coated plates (BD Biosciences). For antagonism assays, a constant concentration of GLP-1 (0.05 nM) was added to the assay plate after the diluted peptides. Incubation continued for 5 h at 37° C., 5% CO2 and was followed by the addition of an equivalent volume (100 μL) of LucLite luminescence substrate reagent (Perkin-Elmer). MicroBeta 1450 liquid scintillation counting (Perkin-Elmer) quantified the luminescence signal in counts per second (cps) after shaking the plate at 600 rpm for 3 min. Data was plotted using Origin software (OriginLab) and the effective concentration 50 (EC50) or inhibitory concentration 50 (IC50) was determined by sigmoidal fitting. Potency was determined by comparative analysis of relative EC50 or IC50 values. Each experiment was repeated at least three times with each sample assayed in duplicate.
# [1] = Solubility of peptides in buffer; assay type: physicochemical
# T1 sequence (P43220 24-463): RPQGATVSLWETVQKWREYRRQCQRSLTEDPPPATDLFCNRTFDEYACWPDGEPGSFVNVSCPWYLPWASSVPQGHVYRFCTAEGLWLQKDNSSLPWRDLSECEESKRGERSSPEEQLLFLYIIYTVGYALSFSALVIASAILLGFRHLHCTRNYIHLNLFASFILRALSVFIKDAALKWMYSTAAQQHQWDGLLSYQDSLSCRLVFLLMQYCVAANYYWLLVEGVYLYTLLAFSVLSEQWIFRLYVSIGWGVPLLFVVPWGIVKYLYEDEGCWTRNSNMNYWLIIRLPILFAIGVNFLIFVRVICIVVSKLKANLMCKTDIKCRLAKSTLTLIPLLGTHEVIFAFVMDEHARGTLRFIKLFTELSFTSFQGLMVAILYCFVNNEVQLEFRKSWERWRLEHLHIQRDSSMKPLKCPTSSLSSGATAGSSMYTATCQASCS
Compound,IC50 (human GLP-1 receptor) [nM],solubility ([1]; pH 7.7) [mg/mL],further results
CCCCCCCCCCCCCCCC(=O)N[C@@H](CCC(=O)NCCOCCOCC(=O)NCCCC[C@H](NC(=O)[C@H](CO)NC(=O)[C@@H]1CCCN1C(=O)[C@@H]1CCCN1C(=O)[C@@H]1CCCN1C(=O)[C@H](C)NC(=O)CNC(=O)[C@H](CO)NC(=O)[C@H](CO)NC(=O)[C@@H]1CCCN1C(=O)CNC(=O)CNC(=O)[C@H](CCCNC(=N)N)NC(=O)[C@@H](NC(=O)[C@H](CC(C)C)NC(=O)[C@H](Cc1c[nH]c2ccccc12)NC(=O)[C@H](CCC(=O)O)NC(=O)[C@@H](NC(=O)[C@H](Cc1ccccc1)NC(=O)[C@H](CCC(=O)O)NC(=O)[C@H](CCCNC(=N)N)NC(=O)[C@@H](NC(=O)[C@H](C)NC(=O)[C@H](CCC(N)=O)NC(=O)[C@H](CCC(=O)O)NC(=O)[C@H](CCC(=O)O)NC(=O)[C@H](CC(C)C)NC(=O)[C@H](Cc1ccc(O)cc1)NC(=O)[C@H](CCCNC(=N)N)NC(=O)[C@H](CO)NC(=O)[C@@H](NC(=O)[C@@H](N)CC(=O)O)C(C)C)C(C)C)[C@@H](C)CC)C(C)C)C(=O)O)C(=O)O [SEQ ID NO: 16] (H-DVSRYLEEQAVREFIEWLVRGGPSSGAPPPSK([AEEA-γGlu-Palmitoyl])-OH),–,–,GLP-1 antagonist activity in glucose tolerance test (C57B1/6 mice; FIG. 2A): full antagonist; Potency relative to the GLP-1 antagonist Ex-9-40 in glucose tolerance test (C57B1/6 mice; FIGS. 2A & 2B): much higher potency
CCCCCCCCCCCCCCCC(=O)N[C@@H](CCC(=O)NCCOCCOCC(=O)NCCOCCOCC(=O)N[C@@H](CCC(=O)NCCCC[C@H](NC(=O)[C@H](CO)NC(=O)[C@@H]1CCCN1C(=O)[C@@H]1CCCN1C(=O)[C@@H]1CCCN1C(=O)[C@H](C)NC(=O)CNC(=O)[C@H](CO)NC(=O)[C@H](CO)NC(=O)[C@@H]1CCCN1C(=O)CNC(=O)CNC(=O)[C@H](CCCCN)NC(=O)[C@@H](NC(=O)[C@H](CC(C)C)NC(=O)[C@H](Cc1c[nH]c2ccccc12)NC(=O)[C@H](C)NC(=O)[C@@H](NC(=O)[C@H](Cc1ccccc1)NC(=O)[C@H](CCC(=O)O)NC(=O)[C@H](CCCNC(=N)N)NC(=O)[C@@H](NC(=O)[C@H](C)NC(=O)[C@H](CCC(N)=O)NC(=O)[C@H](CCC(=O)O)NC(=O)[C@H](CCC(=O)O)NC(=O)[C@H](CC(C)C)NC(=O)[C@H](Cc1ccc(O)cc1)NC(=O)[C@H](CO)NC(=O)[C@H](CO)NC(=O)[C@@H](NC(=O)[C@@H](N)CC(=O)O)C(C)C)C(C)C)[C@@H](C)CC)C(C)C)C(N)=O)C(=O)O)C(=O)O [SEQ ID NO: 57] (H-DVSSYLEEQAVREFIAWLVKGGPSSGAPPPSK([γGlu-AEEA-AEEA-γGlu-Palmitoyl])-NH2; N-terminus assumed),9,> 25,–
CCCCCCCCCCCCCCCC(=O)N[C@@H](CCC(=O)N[C@@H](CCC(=O)NCCOCCOCC(=O)NCCOCCOCC(=O)NCCCC[C@H](NC(=O)[C@H](CO)NC(=O)[C@@H]1CCCN1C(=O)[C@@H]1CCCN1C(=O)[C@@H]1CCCN1C(=O)[C@H](C)NC(=O)CNC(=O)[C@H](CO)NC(=O)[C@H](CO)NC(=O)[C@@H]1CCCN1C(=O)CNC(=O)CNC(=O)[C@H](CCCCN)NC(=O)[C@@H](NC(=O)[C@H](CC(C)C)NC(=O)[C@H](Cc1c[nH]c2ccccc12)NC(=O)[C@H](C)NC(=O)[C@@H](NC(=O)[C@H](Cc1ccccc1)NC(=O)[C@H](CCC(=O)O)NC(=O)[C@H](CCCNC(=N)N)NC(=O)[C@@H](NC(=O)[C@H](C)NC(=O)[C@H](CCC(N)=O)NC(=O)[C@H](CCC(=O)O)NC(=O)[C@H](CCC(=O)O)NC(=O)[C@H](CC(C)C)NC(=O)[C@H](Cc1ccc(O)cc1)NC(=O)[C@H](CO)NC(=O)[C@H](CO)NC(=O)[C@@H](NC(=O)[C@@H](N)CC(=O)O)C(C)C)C(C)C)[C@@H](C)CC)C(C)C)C(N)=O)C(=O)O)C(=O)O [SEQ ID NO: 58] (H-DVSSYLEEQAVREFIAWLVKGGPSSGAPPPSK([AEEA-AEEA-γGlu-γGlu-Palmitoyl])-NH2; N-terminus assumed),11,–,–
CCCCCCCCCCCCCCCC(=O)NCCOCCOCC(=O)NCCOCCOCC(=O)N[C@@H](CCC(=O)N[C@@H](CCC(=O)NCCCC[C@H](NC(=O)[C@H](CO)NC(=O)[C@@H]1CCCN1C(=O)[C@@H]1CCCN1C(=O)[C@@H]1CCCN1C(=O)[C@H](C)NC(=O)CNC(=O)[C@H](CO)NC(=O)[C@H](CO)NC(=O)[C@@H]1CCCN1C(=O)CNC(=O)CNC(=O)[C@H](CCCCN)NC(=O)[C@@H](NC(=O)[C@H](CC(C)C)NC(=O)[C@H](Cc1c[nH]c2ccccc12)NC(=O)[C@H](C)NC(=O)[C@@H](NC(=O)[C@H](Cc1ccccc1)NC(=O)[C@H](CCC(=O)O)NC(=O)[C@H](CCCNC(=N)N)NC(=O)[C@@H](NC(=O)[C@H](C)NC(=O)[C@H](CCC(N)=O)NC(=O)[C@H](CCC(=O)O)NC(=O)[C@H](CCC(=O)O)NC(=O)[C@H](CC(C)C)NC(=O)[C@H](Cc1ccc(O)cc1)NC(=O)[C@H](CO)NC(=O)[C@H](CO)NC(=O)[C@@H](NC(=O)[C@@H](N)CC(=O)O)C(C)C)C(C)C)[C@@H](C)CC)C(C)C)C(N)=O)C(=O)O)C(=O)O [SEQ ID NO: 61] (H-DVSSYLEEQAVREFIAWLVKGGPSSGAPPPSK([γGlu-γGlu-AEEA-AEEA-Palmitoyl])-NH2; N-terminus assumed),6,> 25,–
CCCCCCCCCCCCCCCC(=O)NCCCC[C@H](NC(=O)[C@H](CO)NC(=O)[C@@H]1CCCN1C(=O)[C@@H]1CCCN1C(=O)[C@@H]1CCCN1C(=O)[C@H](C)NC(=O)CNC(=O)[C@H](CO)NC(=O)[C@H](CO)NC(=O)[C@@H]1CCCN1C(=O)CNC(=O)CNC(=O)[C@H](CCCCN)NC(=O)[C@@H](NC(=O)[C@H](CC(C)C)NC(=O)[C@H](Cc1c[nH]c2ccccc12)NC(=O)[C@H](C)NC(=O)[C@@H](NC(=O)[C@H](Cc1ccccc1)NC(=O)[C@H](CCC(=O)O)NC(=O)[C@H](CCCNC(=N)N)NC(=O)[C@@H](NC(=O)[C@H](C)NC(=O)[C@H](CCC(N)=O)NC(=O)C(C)(C)NC(=O)[C@H](CCC(=O)O)NC(=O)[C@H](CC(C)C)NC(=O)[C@H](Cc1ccc(O)cc1)NC(=O)[C@H](CO)NC(=O)[C@H](CO)NC(=O)[C@@H](NC(=O)[C@@H](N)CC(=O)O)C(C)C)C(C)C)[C@@H](C)CC)C(C)C)C(N)=O [SEQ ID NO: 84] (H-DVSSYLE[Aib]QAVREFIAWLVKGGPSSGAPPPSK(Palmitoyl)-NH2; N-terminus assumed),–,–,solubility ([1]; pH 7.4): 0.2 mg/mL
